According to patent US7045343B2, “Sterilization indicator test packs” (3M Innovative Properties Company, priority 1998, dated 2006):

Legend:
[1] = system: enzyme associated with Bacillus stearothermophilus spores; test: Rapid enzyme fluorescence readout of dual rapid readout indicators after prevacuum steam sterilization; assay type: biochemical; conditions: 4-pulse prevacuum steam 121° C.
Protocol: (§1) The indicators prepared for the Examples were dual rapid readout indicators that provided both a rapid, enzyme-based efficacy test and a confirmatory spore outgrowth test. Spores coated on the carrier strip 16 served as the source of active enzyme whose activity was measured by the rapid enzyme test. These same spores were then incubated in the spore outgrowth portion of the test.
(§2) Bacillus stearothermophilus, commercially available as ATCC 7953 from American Type Culture Collection, Rockville, Md., was grown overnight (16 hours) at 58° C. in tryptic soy broth. This culture was used to inoculate the surface of agar plates consisting of 8 g/l nutrient broth, 4 g/l yeast extract, 0.1 g/l manganese chloride and 20 g/l agar at pH 7.2. Plates were incubated at 58° C. for 72 hours. Spores were scraped from the plates and suspended in sterile distilled water. The spores were separated from the vegetative debris by centrifuging the suspension at 7000 rpm and 4° C. for 20 minutes. The supernatant was poured off and the spores were resuspended in sterile distilled water. The cleaning procedure was repeated several times. After the final wash, the spores were suspended in sterile distilled water, at a concentration of approximately 1×10^8 spores per milliliter.
(§3) The spores were then treated with the chemicals identified in Tables 1–5. All chemicals tested were obtained from commercial sources. The spores were centrifuged at 6000 rpm for 10 minutes. The supernatant and coating chemical mixtures were heated at 60–80° C. for several minutes and vortexed to get the material into solution. The spores were then mixed into the sterilant-resistant chemical solution. The sterilant-resistant chemical solution was applied to 5×25 mm, 591 A paper strips (Schleicher & Schuell, Inc., Keene, N.H.) by pipetting 10–15 microliters to each strip for a final population of about 1×10^6 spores per strip. The strips were dried 16 hours at 37° C.
(§4) The treated spore strips were placed on the bottom of the outer container 12 of the indicator 10 and a barrier was inserted between the spore strip 16 and the inner container 18, which contained enzyme substrate. A […] ( 11/16 inch) disc of polypropylene blown microfiber material, with a weight of 200 g/m^2, commercially available as “THINSULATE™ 200-B brand Thermal Insulation” from 3M Company, St. Paul, Minn., was used as the barrier. The inner container 18 contained 0.67 ml nutrient medium, consisting of 17 g of a bacteriological peptone and a 0.17 g/l of L-alanine, as well as 0.1 g 4-methylumbelliferyl-alpha-D-glucoside, commercially available from Sigma Chemical Company, St. Louis, Mo., dissolved in 200 microliters of N,N-dimethylformamide, and 0.03 g bromocresol purple pH indicator dye, per liter of water. The pH of the enzyme substrate and nutrient medium solution was adjusted to 7.6 with 0.1N sodium hydroxide.
(§5) Sterilization indicators were made as described above with each of the chemicals and concentrations described in Table 1. Control indicators were made using untreated spores. The indicators were placed in metal instrument trays and exposed at 121° C. in a Getinge Steam Sterilizer (Getinge International, Inc., 1100 Towbin Ave., Lakewood, N.J.) using a 4-pulse prevacuum cycle at 121° C. with a vacuum level of 0.075–0.085 bar and a steam pulse to 1.00 bar for each pulse. Indicators were exposed in the sterilizer for between 7 and 13 minutes. This cycle is depicted in the time-pressure diagram in FIG. 5. After exposure the inner containers containing the enzyme substrate and nutrient medium were crushed and the indicators were incubated at 60° C. The indicators were examined for fluorescence using a 3M™ ATTEST™ Model 190 Rapid Autoreader, commercially available from 3M Company, St. Paul, Minn. Additionally, spore growth, as indicated by a color change from purple to yellow, was determined visually after 168 hours of incubation at 60° C. […]

[2] = system: Bacillus stearothermophilus spores; test: Spore outgrowth (color change) of indicators after prevacuum steam sterilization; assay type: cell-based; conditions: 4-pulse prevacuum steam 121° C.
Protocol: as §1, §2, §3, §4, §5

[3] = Example 5, 50 mg/ml coating, 7–13 min
[4] = Example 5, 100 mg/ml coating, 7–13 min
[5] = Example 1, 20 mg/ml coating, 7–13 min
[6] = Example 1, 40 mg/ml coating, 7–13 min
[7] = Example 2, 5 mg/ml coating, 7–13 min
[8] = Example 2, 10 mg/ml coating, 7–13 min
[9] = Example 2, 20 mg/ml coating, 7–13 min
[10] = Example 2, 40 mg/ml coating, 7–13 min
[11] = Example 2, 80 mg/ml coating, 7–13 min
[12] = Example 2, 100 mg/ml coating, 7–13 min
[13] = Example 4, 25 mg/ml coating, 7–18 min
[14] = Example 4, 50 mg/ml coating, 7–18 min
[15] = Example 4, 100 mg/ml coating, 7–18 min

POE(15) Glyceryl Monostearate
FLUORESCENCE - PERCENT POSITIVE 1 HR [1, 3]: 0%
FLUORESCENCE - PERCENT POSITIVE 2 HR [1, 3]: 0%
FLUORESCENCE - PERCENT POSITIVE 3 HR [1, 3]: 42.9%
FLUORESCENCE - PERCENT POSITIVE 4 HR [1, 3]: 57.1%
FLUORESCENCE - PERCENT POSITIVE 1 HR [1, 4]: 0%
FLUORESCENCE - PERCENT POSITIVE 2 HR [1, 4]: 0%
FLUORESCENCE - PERCENT POSITIVE 3 HR [1, 4]: 0%
FLUORESCENCE - PERCENT POSITIVE 4 HR [1, 4]: 0%
NO. GROWTH POSITIVE 168 HR [2, 3]: 7
NO. GROWTH POSITIVE 168 HR [2, 4]: 4

POE(15) Glyceryl Monooleate
FLUORESCENCE - PERCENT POSITIVE 1 HR [1, 3]: 0%
FLUORESCENCE - PERCENT POSITIVE 2 HR [1, 3]: 0%
FLUORESCENCE - PERCENT POSITIVE 3 HR [1, 3]: 0%
FLUORESCENCE - PERCENT POSITIVE 4 HR [1, 3]: 0%
NO. GROWTH POSITIVE 168 HR [2, 3]: 1

Glycereth-7-diisononanoate
FLUORESCENCE - PERCENT POSITIVE 1 HR [1, 5]: 0%
FLUORESCENCE - PERCENT POSITIVE 2 HR [1, 5]: 0%
FLUORESCENCE - PERCENT POSITIVE 3 HR [1, 5]: 66.7%
FLUORESCENCE - PERCENT POSITIVE 4 HR [1, 5]: 83.3%
FLUORESCENCE - PERCENT POSITIVE 5 HR [1, 5]: 83.3%
FLUORESCENCE - PERCENT POSITIVE 6 HR [1, 5]: 83.3%
FLUORESCENCE - PERCENT POSITIVE 1 HR [1, 6]: 0%
FLUORESCENCE - PERCENT POSITIVE 2 HR [1, 6]: 64.7%
FLUORESCENCE - PERCENT POSITIVE 3 HR [1, 6]: 88.2%
FLUORESCENCE - PERCENT POSITIVE 4 HR [1, 6]: 88.2%
FLUORESCENCE - PERCENT POSITIVE 5 HR [1, 6]: 94.1%
FLUORESCENCE - PERCENT POSITIVE 6 HR [1, 6]: 100.0%
NO. GROWTH POSITIVE 168 HR [2, 5]: 6
NO. GROWTH POSITIVE 168 HR [2, 6]: 17

OCC(O)COCC(O)COCC(O)COCC(O)COCC(O)COCC(O)COCC(O)COCC(O)COCC(O)COCC(O)CO (stereo not drawn) [Decaglycerol]
FLUORESCENCE - PERCENT POSITIVE 1 HR [1, 7]: 0%
FLUORESCENCE - PERCENT POSITIVE 2 HR [1, 7]: 0%
FLUORESCENCE - PERCENT POSITIVE 3 HR [1, 7]: 0%
FLUORESCENCE - PERCENT POSITIVE 4 HR [1, 7]: 23.1%
FLUORESCENCE - PERCENT POSITIVE 5 HR [1, 7]: 23.1%
FLUORESCENCE - PERCENT POSITIVE 6 HR [1, 7]: 30.8%
FLUORESCENCE - PERCENT POSITIVE 1 HR [1, 8]: 0%
FLUORESCENCE - PERCENT POSITIVE 2 HR [1, 8]: 0%
FLUORESCENCE - PERCENT POSITIVE 3 HR [1, 8]: 7.7%
FLUORESCENCE - PERCENT POSITIVE 4 HR [1, 8]: 23.1%
FLUORESCENCE - PERCENT POSITIVE 5 HR [1, 8]: 23.1%
FLUORESCENCE - PERCENT POSITIVE 6 HR [1, 8]: 30.8%
FLUORESCENCE - PERCENT POSITIVE 1 HR [1, 9]: 0%
FLUORESCENCE - PERCENT POSITIVE 2 HR [1, 9]: 0%
FLUORESCENCE - PERCENT POSITIVE 3 HR [1, 9]: 9.1%
FLUORESCENCE - PERCENT POSITIVE 4 HR [1, 9]: 18.2%
FLUORESCENCE - PERCENT POSITIVE 5 HR [1, 9]: 45.5%
FLUORESCENCE - PERCENT POSITIVE 6 HR [1, 9]: 63.6%
FLUORESCENCE - PERCENT POSITIVE 1 HR [1, 10]: 0%
FLUORESCENCE - PERCENT POSITIVE 2 HR [1, 10]: 0%
FLUORESCENCE - PERCENT POSITIVE 3 HR [1, 10]: 7.7%
FLUORESCENCE - PERCENT POSITIVE 4 HR [1, 10]: 42.3%
FLUORESCENCE - PERCENT POSITIVE 5 HR [1, 10]: 46.2%
FLUORESCENCE - PERCENT POSITIVE 6 HR [1, 10]: 53.8%
FLUORESCENCE - PERCENT POSITIVE 1 HR [1, 11]: 0%
FLUORESCENCE - PERCENT POSITIVE 2 HR [1, 11]: 12.0%
FLUORESCENCE - PERCENT POSITIVE 3 HR [1, 11]: 36.0%
FLUORESCENCE - PERCENT POSITIVE 4 HR [1, 11]: 64.0%
FLUORESCENCE - PERCENT POSITIVE 5 HR [1, 11]: 72.0%
FLUORESCENCE - PERCENT POSITIVE 6 HR [1, 11]: 76.0%
FLUORESCENCE - PERCENT POSITIVE 1 HR [1, 12]: 0%
FLUORESCENCE - PERCENT POSITIVE 2 HR [1, 12]: 6.9%
FLUORESCENCE - PERCENT POSITIVE 3 HR [1, 12]: 48.3%
FLUORESCENCE - PERCENT POSITIVE 4 HR [1, 12]: 69.0%
FLUORESCENCE - PERCENT POSITIVE 5 HR [1, 12]: 79.3%
FLUORESCENCE - PERCENT POSITIVE 6 HR [1, 12]: 89.7%
NO. GROWTH POSITIVE 168 HR [2, 7]: 13
NO. GROWTH POSITIVE 168 HR [2, 8]: 13
NO. GROWTH POSITIVE 168 HR [2, 9]: 11
NO. GROWTH POSITIVE 168 HR [2, 10]: 26
NO. GROWTH POSITIVE 168 HR [2, 11]: 25
NO. GROWTH POSITIVE 168 HR [2, 12]: 29

Hexaglyceryl Distearate
accuracy of sterilization indicators compared to indicators made with untreated spores [1]: improved
FLUORESCENCE - PERCENT POSITIVE 1 HR [1, 13]: 27.6%
FLUORESCENCE - PERCENT POSITIVE 2 HR [1, 13]: 51.7%
FLUORESCENCE - PERCENT POSITIVE 3 HR [1, 13]: 58.6%
FLUORESCENCE - PERCENT POSITIVE 4 HR [1, 13]: 62.1%
FLUORESCENCE - PERCENT POSITIVE 1 HR [1, 14]: 30.3%
FLUORESCENCE - PERCENT POSITIVE 2 HR [1, 14]: 57.6%
FLUORESCENCE - PERCENT POSITIVE 3 HR [1, 14]: 97%
FLUORESCENCE - PERCENT POSITIVE 4 HR [1, 14]: 100%
FLUORESCENCE - PERCENT POSITIVE 1 HR [1, 15]: 71.4%
FLUORESCENCE - PERCENT POSITIVE 2 HR [1, 15]: 100%
FLUORESCENCE - PERCENT POSITIVE 3 HR [1, 15]: 100%
FLUORESCENCE - PERCENT POSITIVE 4 HR [1, 15]: 100%
NO. GROWTH POSITIVE 168 HR [2, 13]: 29
NO. GROWTH POSITIVE 168 HR [2, 14]: 33
NO. GROWTH POSITIVE 168 HR [2, 15]: 21
